Reference: patent US11413328B2, “Methods for treating inflammatory conditions of the lungs” (priority 2016, dated 2022)

Assays:
[1] = test system: microbiota of the intestine; assay: 16S microbiota analysis, interventional defensin treatment in diet-induced obese mice (Example 11); format: in vivo; settings: intervention
Description: The experiment elucidates the effect of hBD2 and HD5 on the microbiota in diet-induced obese mice. A run-in period of 13 weeks where mice were fed a very HFD (60% energy from fat) preceded the intervention. Only mice meeting the criteria of a minimum of 12 gram weight gain (approximately 50% of initial bodyweight) during the run-in period were included in the final analyses. […] They were exposed to all experimental tests, but excluded from the analyses.
Before the intervention all mice were MR scanned. Cages of mice were allocated to experimental groups based on their fat mass. All subsequent measures were paired with data from the same mouse before the intervention. A LFD (low fat diet) reference group was running in parallel. As controls for the intervention 2 additional groups were included: 1 very HFD and 1 LFD. Experimental mice stayed on the very HFD during the intervention. The mice were on the experimental diet for 10 weeks. They were co-housed throughout the experiment, 4 mice per cage, 3 cages per group. All tests ran over 3 days, 1 cage per group per day.
Microbial analyses were carried out to study the microbiota of the intestine. Longitudinal 16S characterization was conducted on 4 paired samples from 60 mice, 240 samples in total. Each mouse was sampled prior to diet change, 1 week post diet change, 4 weeks post diet change and at termination, thus ensuring a thorough characterization of the faecal microbiota as a result of defensin treatment.

[2] = test system: microbiota of the intestine; assay: 16S microbiota analysis, prophylactic defensin treatment in high fat diet model (Example 10); format: in vivo, mice
Description: Mice were housed in trios, 4 cages per group. Feed intake was registered daily just before lights were turned off at […]. Individual mice were subjected to experimental procedures in altered order both group and cage wise. Mice were kept at room temperature under a 12-hour light/dark cycle at SPF standard conditions. The treatment regime is described in FIG. 38. Mice were fed either a high fat diet (HFD) or a low fat (LF) control diet. The HFD contained 4 subgroups; 1 hBD2, 1 HD5, 1 hBD2/HD5 and 1 standard HFD without supplementation of defensins. Defensin concentration was 1.2 mg hBD2 per kg mouse per day. HD5 was given in equimolar concentration to hBD2. […] Microbial analyses were carried out to study the microbiota of the intestine. Longitudinal 16S characterization was conducted on 4 paired samples from 60 mice, 240 samples in total. Each mouse was sampled prior to diet change, 1 week post diet change, 4 weeks post diet change and at termination, thus ensuring a thorough characterization of the faecal microbiota as a result of defensin treatment.

[3] = test system: murine house dust mite/Freunds complete adjuvant driven model of allergic asthma; assay: Total and differential cell counts in BALF, HDM asthma model (Example 2); format: in vivo, BALB/c mice; settings: dexamethasone orally 1 mg/kg BID day 14; 48 hours post challenge
Description: Female 7-10 weeks old BALB/c mice were randomly allocated into 7 study groups one day prior to study start and subcutaneously (SC) sensitized to house dust mite (100 μg HDM in 200 μL saline plus Freunds complete adjuvant in 0.9% saline). Mice were then intranasally (IN) challenged with HDM on day 14 (HDM 25 μg in 50 μL of saline). […] The initial dose was administered 60 minutes prior to challenge, and the subsequent doses approximately 6 hours apart. Airway inflammation: At 48 hours post challenge, bronchoalveolar lavage was performed washing the lungs with 3 volumes of cold PBS (0.4; 0.3 and 0.3 mL, total 1 mL). Total and differential leucocyte cell counts were determined on an automated haematological analyser Sysmex XT-2000iV.

[4] = test system: Dextran Sodium Sulphate (DSS) induced colitis model; assay: Acute 10-day DSS induced colitis model (Example 7); format: in vivo, mice; settings: Pred 1 mg/kg orally daily
Description: To determine and assess the anti-inflammatory effect of “hBD-2-albumin fusion C-terminal” in an acute 10-day Dextran Sodium Sulphate (DSS) induced colitis model in mice.
“hBD-2-albumin C-terminal” was administered intravenously via the tail vein or subcutaneously with the use of a sterile 25G needle in a dosing volume of 10 ml/kg body weight. The animals received 1 dose daily for 10 […] days. The active control Prednisolone (Pred) was given orally by gavage at a dose of 1 mg/kg in a dosing volume of 10 ml/kg body weight OD.

## human intestinal alpha defensin 5 (ATCYCRTGRCATRESLSGVCEISGRLYRLCCR; listed as Homo sapiens) [HD5]
[1]; HD5 p<0.02
  abundance of Alloprevotella in the colon: increased the abundance of Alloprevotella statistically significantly
[1]; hBD2 p<0.0001
  relative abundance of Bifidobacteriaceae in the small intestine: trend towards HD5 increasing the abundance
[2]; 1.2 mg hBD2 per kg per day in feed, HD5 equimolar, combination 50% + 50%
  effect on microbial presence / microbial abundance: affected primarily the microbial abundance
[2]; prophylaxis, p<0.02
  abundance of Allobaculum in the small intestine: statistically significant increase

## C[C@@H]1C[C@H]2[C@@H]3CCC4=CC(=O)C=C[C@]4(C)[C@@]3(F)[C@@H](O)C[C@]2(C)[C@@]1(O)C(=O)CO [Dexamethasone, reference compound]
[3]
  neutrophil count in BALF: failed to inhibit

## C[C@]12C=CC(=O)C=C1CC[C@@H]1[C@@H]2[C@@H](O)C[C@@]2(C)[C@H]1CC[C@]2(O)C(=O)CO [Pred, Prednisolone]
[4]
  histological injury, proximal part of the colon: failed to significantly reduce
[4]; day 9, p<0.05
  DAI: significant inhibition
[4]; p<0.01
  histological injury, distal colon: did reduce
